Measurements published in patent publication US20260242419A1, “A CYCLIC PEPTIDE FOR TRAPPING INTERLEUKIN-1 BETA” (Merck Sharp & Dohme LLC, priority 2023, published 2026).
Starred links: 1 amine or outer side, 2 acyl side, 3 side chain; linkers in the order of their positions; H or OH if unused. Non-standard residues stand in square brackets, D forms with d. Residues, ends and D or L forms follow the SMILES beside them. dPro(4R-(4-pyridylmethyl)) = O=C(O)[C@H]1C[C@@H](Cc2ccncc2)CN1; Ala(piperidin-4-yl) = O=C([C@H](CC1CCN([*:3])CC1)N[*:1])[*:2]; Trp(βS-Me,4-F) = C[C@@H](c1c[nH]c2cccc(F)c12)[C@H](N)C(=O)O; Bip(4'-COOH) = N[C@@H](Cc1ccc(-c2ccc(C(=O)O)cc2)cc1)C(=O)O; Ala(1-bicyclo(1.1.1)pentyl) = N[C@@H](CC12CC(C1)C2)C(=O)O; dPro(4R-Bzl(4-F)) = O=C(O)[C@H]1C[C@@H](Cc2ccc(F)cc2)CN1; Ala(morpholin-4-yl) = N[C@@H](CN1CCOCC1)C(=O)O; Ala(piperazin-1-yl) = N[C@@H](CN1CCNCC1)C(=O)O; Ala(pyrimidin-5-yl) = N[C@@H](Cc1cncnc1)C(=O)O; Phe(4-COOH) = N[C@@H](Cc1ccc(C(=O)O)cc1)C(=O)O; Pro(cis-4-F) = O=C(O)[C@@H]1C[C@H](F)CN1; cisHyp = O=C(O)[C@@H]1C[C@H](O)CN1; d(αMeD) = C[C@@](N)(CC(=O)O)C(=O)O; 4Pal = N[C@@H](Cc1ccncc1)C(=O)O; d(αMeS) = C[C@@](N)(CO)C(=O)O; Cba = N[C@@H](CC1CCC1)C(=O)O; αMeK = C[C@](N)(CCCCN)C(=O)O; Dab = NCC[C@H](N)C(=O)O; Aib = CC(C)(N)C(=O)O

These compounds were tested against T1, IL-1β (Homo sapiens, UniProt P01584) (assay: IL-6 assay in MRC5 cells: inhibition of IL-1β induced IL-6 secretion (AlphaLISA)). Settings: inhibition of IL-1β induced IL-6 secretion in MRC5 cells; read-out: MRC5 IC50.
T1 construct: purchased BioLegend 579404
T1 sequence (P01584 117-269): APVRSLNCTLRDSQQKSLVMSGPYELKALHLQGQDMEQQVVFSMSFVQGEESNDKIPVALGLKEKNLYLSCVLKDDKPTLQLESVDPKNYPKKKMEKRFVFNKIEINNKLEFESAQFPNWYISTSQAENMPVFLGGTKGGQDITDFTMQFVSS
Assay type: cell-based
Outline: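 Compound was pre-incubated 1 h at ambient temperature with recombinant human IL-1β at 2λ EC80 before adding human lung fibroblast MRC5 cells (3000/well) in EMEM with 0.025% BSA. After overnight culture at 37 °C, 5% CO2, secreted IL-6 in conditioned medium was measured by AlphaLISA; IC50 from 4-parameter logistic fits.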
Compound `C[C@@H](c1c[nH]c2cccc(F)c12)[C@@H]1NC(=O)[C@@H]2C[C@H](O)CN2C(=O)CNC(=O)[C@H](Cc2ccc(C(=O)O)cc2)NC(=O)[C@H](Cc2ccncc2)NC(=O)[C@H](Cc2ccc(-c3ccc(C(=O)O)cc3)cc2)NC(=O)[C@H]2C[C@@H](Cc3ccncc3)CN2C(=O)CNC(=O)[C@H](CO)NC(=O)[C@H](CCC(N)=O)NC(=O)[C@H](Cc2cncnc2)NC(=O)[C@@](C)(CC(=O)O)NC(=O)[C@H](Cc2c[nH]c3ccccc23)NC(=O)[C@H](CO)NC(=O)C(C)(C)NC1=O` [Example 161] (cyclo([Bip(4'-COOH)][4Pal][Phe(4-COOH)]G[cisHyp][Trp(βS-Me,4-F)][Aib]SW[d(αMeD)][Ala(pyrimidin-5-yl)]QSG[dPro(4R-(4-pyridylmethyl))])) has an IC50 of 0.019 nM.
`C[C@@H](c1c[nH]c2cccc(F)c12)[C@@H]1NC(=O)[C@@H]2C[C@H](F)CN2C(=O)CNC(=O)[C@H](Cc2ccc(C(=O)O)cc2)NC(=O)[C@H](CC2CCC2)NC(=O)[C@H](Cc2ccc(-c3ccc(C(=O)O)cc3)cc2)NC(=O)[C@H]2C[C@@H](Cc3ccncc3)CN2C(=O)CNC(=O)[C@H](CCN)NC(=O)[C@H](CCC(N)=O)NC(=O)[C@H](Cc2cncnc2)NC(=O)C(C)(C)NC(=O)[C@H](Cc2c[nH]c3ccccc23)NC(=O)[C@H](CO)NC(=O)C(C)(C)NC1=O` [Example 163] (cyclo([Bip(4'-COOH)][Cba][Phe(4-COOH)]G[Pro(cis-4-F)][Trp(βS-Me,4-F)][Aib]SW[Aib][Ala(pyrimidin-5-yl)]Q[Dab]G[dPro(4R-(4-pyridylmethyl))])) was tested, and the IC50 was 0.03 nM.
`C[C@@H](c1c[nH]c2cccc(F)c12)[C@@H]1NC(=O)[C@@H]2C[C@H](O)CN2C(=O)CNC(=O)[C@H](Cc2ccc(C(=O)O)cc2)NC(=O)[C@H](CC2CCC2)NC(=O)[C@H](Cc2ccc(-c3ccc(C(=O)O)cc3)cc2)NC(=O)[C@H]2C[C@@H](Cc3ccncc3)CN2C(=O)CNC(=O)[C@H](CCN)NC(=O)[C@H](CCC(N)=O)NC(=O)[C@H](Cc2cncnc2)NC(=O)[C@@](C)(CC(=O)O)NC(=O)[C@H](Cc2c[nH]c3ccccc23)NC(=O)[C@H](CO)NC(=O)C(C)(C)NC1=O` [Example 164] (cyclo([Bip(4'-COOH)][Cba][Phe(4-COOH)]G[cisHyp][Trp(βS-Me,4-F)][Aib]SW[d(αMeD)][Ala(pyrimidin-5-yl)]Q[Dab]G[dPro(4R-(4-pyridylmethyl))])) showed an IC50 of 0.039 nM.
Compound `C[C@@H](c1c[nH]c2cccc(F)c12)[C@@H]1NC(=O)[C@@H]2C[C@H](F)CN2C(=O)CNC(=O)[C@H](Cc2ccc(C(=O)O)cc2)NC(=O)[C@H](CC23CC(C2)C3)NC(=O)[C@H](Cc2ccc(-c3ccc(C(=O)O)cc3)cc2)NC(=O)[C@H]2C[C@@H](Cc3ccc(F)cc3)CN2C(=O)CNC(=O)[C@H](CCN)NC(=O)[C@H](CCC(N)=O)NC(=O)[C@H](CN2CCOCC2)NC(=O)[C@](C)(CCCCN)NC(=O)[C@H](Cc2c[nH]c3ccccc23)NC(=O)[C@H](CCC(=O)O)NC(=O)C(C)(C)NC1=O` [Example 165] (cyclo([Bip(4'-COOH)][Ala(1-bicyclo(1.1.1)pentyl)][Phe(4-COOH)]G[Pro(cis-4-F)][Trp(βS-Me,4-F)][Aib]EW[αMeK][Ala(morpholin-4-yl)]Q[Dab]G[dPro(4R-Bzl(4-F))])) has an IC50 of 0.022 nM.
`C[C@@H](c1c[nH]c2cccc(F)c12)[C@@H]1NC(=O)[C@@H]2C[C@H](F)CN2C(=O)CNC(=O)[C@H](Cc2ccc(C(=O)O)cc2)NC(=O)[C@H](CC23CC(C2)C3)NC(=O)[C@H](Cc2ccc(-c3ccc(C(=O)O)cc3)cc2)NC(=O)[C@H]2C[C@@H](Cc3ccc(F)cc3)CN2C(=O)CNC(=O)[C@H](CCN)NC(=O)[C@H](CCC(N)=O)NC(=O)[C@H](CC2CCNCC2)NC(=O)[C@](C)(CCCCN)NC(=O)[C@H](Cc2c[nH]c3ccccc23)NC(=O)[C@H](CCC(=O)O)NC(=O)C(C)(C)NC1=O` [Example 166] (cyclo([Bip(4'-COOH)][Ala(1-bicyclo(1.1.1)pentyl)][Phe(4-COOH)]G[Pro(cis-4-F)][Trp(βS-Me,4-F)][Aib]EW[αMeK][Ala(piperidin-4-yl)]Q[Dab]G[dPro(4R-Bzl(4-F))])) showed an IC50 of 0.039 nM.
`C[C@@H](c1c[nH]c2cccc(F)c12)[C@@H]1NC(=O)[C@@H]2C[C@H](F)CN2C(=O)CNC(=O)[C@H](Cc2ccc(C(=O)O)cc2)NC(=O)[C@H](CC23CC(C2)C3)NC(=O)[C@H](Cc2ccc(-c3ccc(C(=O)O)cc3)cc2)NC(=O)[C@H]2C[C@@H](Cc3ccc(F)cc3)CN2C(=O)CNC(=O)[C@H](CCN)NC(=O)[C@H](CCC(N)=O)NC(=O)[C@H](CN2CCOCC2)NC(=O)C(C)(C)NC(=O)[C@H](Cc2c[nH]c3ccccc23)NC(=O)[C@H](CO)NC(=O)C(C)(C)NC1=O` [Example 167] (cyclo([Bip(4'-COOH)][Ala(1-bicyclo(1.1.1)pentyl)][Phe(4-COOH)]G[Pro(cis-4-F)][Trp(βS-Me,4-F)][Aib]SW[Aib][Ala(morpholin-4-yl)]Q[Dab]G[dPro(4R-Bzl(4-F))])) gave an IC50 of 0.013 nM.
`C[C@@H](c1c[nH]c2cccc(F)c12)[C@@H]1NC(=O)[C@@H]2C[C@H](F)CN2C(=O)CNC(=O)[C@H](Cc2ccc(C(=O)O)cc2)NC(=O)[C@H](CC23CC(C2)C3)NC(=O)[C@H](Cc2ccc(-c3ccc(C(=O)O)cc3)cc2)NC(=O)[C@H]2C[C@@H](Cc3ccc(F)cc3)CN2C(=O)CNC(=O)[C@H](CCN)NC(=O)[C@H](CCC(N)=O)NC(=O)[C@H](CN2CCNCC2)NC(=O)C(C)(C)NC(=O)[C@H](Cc2c[nH]c3ccccc23)NC(=O)[C@H](CO)NC(=O)C(C)(C)NC1=O` [Example 168] (cyclo([Bip(4'-COOH)][Ala(1-bicyclo(1.1.1)pentyl)][Phe(4-COOH)]G[Pro(cis-4-F)][Trp(βS-Me,4-F)][Aib]SW[Aib][Ala(piperazin-1-yl)]Q[Dab]G[dPro(4R-Bzl(4-F))])) was tested, and the IC50 was 0.018 nM.
`C[C@@H](c1c[nH]c2cccc(F)c12)[C@@H]1NC(=O)[C@@H]2C[C@H](F)CN2C(=O)CNC(=O)[C@H](Cc2ccc(C(=O)O)cc2)NC(=O)[C@H](CC23CC(C2)C3)NC(=O)[C@H](Cc2ccc(-c3ccc(C(=O)O)cc3)cc2)NC(=O)[C@H]2C[C@@H](Cc3ccc(F)cc3)CN2C(=O)CNC(=O)[C@H](CCN)NC(=O)[C@H](CCC(N)=O)NC(=O)[C@H](CC2CCNCC2)NC(=O)C(C)(C)NC(=O)[C@H](Cc2c[nH]c3ccccc23)NC(=O)[C@H](CO)NC(=O)C(C)(C)NC1=O` [Example 169] (cyclo([Bip(4'-COOH)][Ala(1-bicyclo(1.1.1)pentyl)][Phe(4-COOH)]G[Pro(cis-4-F)][Trp(βS-Me,4-F)][Aib]SW[Aib][Ala(piperidin-4-yl)]Q[Dab]G[dPro(4R-Bzl(4-F))])) gave an IC50 of 0.019 nM.
Compound `C[C@@H](c1c[nH]c2cccc(F)c12)[C@@H]1NC(=O)[C@@H]2C[C@H](F)CN2C(=O)CNC(=O)[C@H](Cc2ccc(C(=O)O)cc2)NC(=O)[C@H](CC23CC(C2)C3)NC(=O)[C@H](Cc2ccc(-c3ccc(C(=O)O)cc3)cc2)NC(=O)[C@H]2C[C@@H](Cc3ccc(F)cc3)CN2C(=O)CNC(=O)[C@H](CCN)NC(=O)[C@H](CCC(N)=O)NC(=O)[C@H](CN2CCOCC2)NC(=O)[C@@](C)(CO)NC(=O)[C@H](Cc2c[nH]c3ccccc23)NC(=O)[C@H](CO)NC(=O)C(C)(C)NC1=O` [Example 170] (cyclo([Bip(4'-COOH)][Ala(1-bicyclo(1.1.1)pentyl)][Phe(4-COOH)]G[Pro(cis-4-F)][Trp(βS-Me,4-F)][Aib]SW[d(αMeS)][Ala(morpholin-4-yl)]Q[Dab]G[dPro(4R-Bzl(4-F))])) has an IC50 of 0.015 nM.
For `C[C@@H](c1c[nH]c2cccc(F)c12)[C@@H]1NC(=O)[C@@H]2C[C@H](F)CN2C(=O)CNC(=O)[C@H](Cc2ccc(C(=O)O)cc2)NC(=O)[C@H](CC23CC(C2)C3)NC(=O)[C@H](Cc2ccc(-c3ccc(C(=O)O)cc3)cc2)NC(=O)[C@H]2C[C@@H](Cc3ccc(F)cc3)CN2C(=O)CNC(=O)[C@H](CCN)NC(=O)[C@H](CCC(N)=O)NC(=O)[C@H](CN2CCNCC2)NC(=O)[C@@](C)(CO)NC(=O)[C@H](Cc2c[nH]c3ccccc23)NC(=O)[C@H](CO)NC(=O)C(C)(C)NC1=O` [Example 171] (cyclo([Bip(4'-COOH)][Ala(1-bicyclo(1.1.1)pentyl)][Phe(4-COOH)]G[Pro(cis-4-F)][Trp(βS-Me,4-F)][Aib]SW[d(αMeS)][Ala(piperazin-1-yl)]Q[Dab]G[dPro(4R-Bzl(4-F))])), the IC50 was 0.016 nM.
Work on `C[C@@H](c1c[nH]c2cccc(F)c12)[C@@H]1NC(=O)[C@@H]2C[C@H](F)CN2C(=O)CNC(=O)[C@H](Cc2ccc(C(=O)O)cc2)NC(=O)[C@H](CC23CC(C2)C3)NC(=O)[C@H](Cc2ccc(-c3ccc(C(=O)O)cc3)cc2)NC(=O)[C@H]2C[C@@H](Cc3ccc(F)cc3)CN2C(=O)CNC(=O)[C@H](CCN)NC(=O)[C@H](CCC(N)=O)NC(=O)[C@H](CC2CCNCC2)NC(=O)[C@@](C)(CO)NC(=O)[C@H](Cc2c[nH]c3ccccc23)NC(=O)[C@H](CO)NC(=O)C(C)(C)NC1=O` [Example 172] (cyclo([Bip(4'-COOH)][Ala(1-bicyclo(1.1.1)pentyl)][Phe(4-COOH)]G[Pro(cis-4-F)][Trp(βS-Me,4-F)][Aib]SW[d(αMeS)][Ala(piperidin-4-yl)]Q[Dab]G[dPro(4R-Bzl(4-F))])) yielded an IC50 of 0.016 nM.
For `C[C@@H](c1c[nH]c2cccc(F)c12)[C@@H]1NC(=O)[C@@H]2C[C@H](F)CN2C(=O)CNC(=O)[C@H](Cc2ccc(C(=O)O)cc2)NC(=O)[C@H](CC23CC(C2)C3)NC(=O)[C@H](Cc2ccc(-c3ccc(C(=O)O)cc3)cc2)NC(=O)[C@H]2C[C@@H](Cc3ccc(F)cc3)CN2C(=O)CNC(=O)[C@H](CO)NC(=O)[C@H](CCC(N)=O)NC(=O)[C@H](CN2CCOCC2)NC(=O)[C@](C)(CCCCN)NC(=O)[C@H](Cc2c[nH]c3ccccc23)NC(=O)[C@H](CO)NC(=O)C(C)(C)NC1=O` [Example 173] (cyclo([Bip(4'-COOH)][Ala(1-bicyclo(1.1.1)pentyl)][Phe(4-COOH)]G[Pro(cis-4-F)][Trp(βS-Me,4-F)][Aib]SW[αMeK][Ala(morpholin-4-yl)]QSG[dPro(4R-Bzl(4-F))])), the IC50 was 0.037 nM.
